From patent US5777190A (priority 1997, dated 1998)

How the values were obtained:
rats = conditions: rat, in vivo; cited from earlier work
[1] = biological target: ferredoxin NADP oxidoreductase (FNR, EC 1.18.1.2) from spinach (Spinacia oleracea, UniProt P00455)
ferredoxin NADP oxidoreductase (FNR, EC 1.18.1.2) from spinach, sequence (P00455 56-369): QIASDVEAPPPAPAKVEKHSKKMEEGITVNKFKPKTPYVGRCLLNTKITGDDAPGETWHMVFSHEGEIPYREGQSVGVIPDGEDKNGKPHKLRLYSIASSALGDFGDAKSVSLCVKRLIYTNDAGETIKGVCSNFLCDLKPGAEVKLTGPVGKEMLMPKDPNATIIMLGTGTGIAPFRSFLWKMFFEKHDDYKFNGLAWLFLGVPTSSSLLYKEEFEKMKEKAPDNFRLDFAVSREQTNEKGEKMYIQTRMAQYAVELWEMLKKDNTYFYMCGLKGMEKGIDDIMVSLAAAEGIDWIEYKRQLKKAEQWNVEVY

O=[N+]([O-])c1ccccc1 [nitrobenzene]
LD50 (rats): 640 mg/kg
reduction by FNR under aerobic conditions [1]: not reduced
stoichiometry of transformation by FNR [1]: One mole of PHA is formed for every mole of nitrobenzene
reduction by FNR under nitrogen (product formed) ([1]; pH 8.5): transformation of nitrobenzene to PHA by FNR
